Results on one compound are retold here after US20260041653A1, “AN HDAC INHIBITOR FOR TREATING CANCER WITH A MODIFIED STK11 ACTIVITY OR EXPRESSION” (Tango Therapeutics, Inc., priority 2022, published 2026).

Structures are written as SMILES. Where “and” joins values, the source holds several entries; their conditions need not be identical. Identical values can stand only once.

What is called bioavailability is the share of a dose that reaches the circulation, judged against a reference dose that is usually intravenous. As a reminder, the fraction unbound is the share of the substance not bound to proteins or other matrix. As a reminder, the MRT is the average time that molecules of a dose stay in the body.

Data set [1] has as its system cytokines and antigen presentation genes. The data set can be described thus: Nanostring PanCancer IO 360 cytokine and HLA gene profiling of STK11-/- MC38. Further details: species or system mouse. The following applies: 30 mg/kg for 7 days in vivo; 0.2 uM for 4 days in vitro. As for the experimental part:
The cytokine expression of tumors from mice treated with Compound I was determined by Nanostring PanCancer IO 360 analysis.
Briefly, STK11−/− MC38 tumors from mice treated for 7 days with 30 mg/kg of Compound I or anti-PD1 antibody alone or in combination were collected 8 hours post last dose. The gene expression profiles of CXCL9, CXCL10, and CXCL11 of the tumors were determined by Nanostring PanCancer IO 360 (FIG. 9A). Additionally, the gene expression profiles of Treg-recruiting chemokines CCL1 and CCL22 of the tumors were determined by Nanostring PanCancer IO 360 (FIG. 9B).
STK11-deficient MC38 cells were also profiled for HLA gene expression by Nanostring IO360 panel in vitro after 4 days of treatment with Compound I at 0.2 uM compared to DMSO solvent control (FIG. 9C).

Data set [2] has as its target CYP2D6 (Homo sapiens, UniProt P10635). The data set can be described thus: Metabolism by recombinant human CYP2D6. The note with it: read-out: terminal half life (T1/2), rh CYP2D6. It counts as in vitro ADME. As for the experimental part:
(§1) Drug metabolizing enzymes involved in the biotransformation of Compound I were investigated using human liver microsomes (HLM) and recombinant enzymes. Compound I was stable in HLMs (>93% remaining after 240 minutes of incubation with HLM protein concentration at 0.6 mg/ml). CYP selective inhibitor experiments were not performed due to lack of appreciable Compound I turnover.

Data set [3] can be described thus: Pharmacokinetics in rats. It is filed as in vivo, Sprague Dawley rats. The note with it: rat, plasma. As for the experimental part:
The pharmacokinetics (PK) of Compound I in rats was determined following single IV bolus of 1 mg/kg in 20% wt/vol HPβCD, 1% vol/vol DMSO in saline or single PO dose of 3 mg/kg in 0.5% methylcellulose (MC) in water to male Sprague Dawley rats (fed for IV, fasted for PO). Plasma samples were collected from 3 animals/group at 0.05, 0.25, 0.5, 1, 2, 3, 4 8, and 24 hours after dosing.

For data set [4], the system named is acetyl-histone H3. In words: PK/PD study, acetyl-histone H3 in tumor by Western blot. It counts as in vivo, C57BL/6 mice. As for the experimental part:
In a separate PK/PD study, MC38 tumor-bearing female C57BL/6 mice (12/group) were assigned to treatment groups with similar mean tumor volumes of approximately 430 mm^3 and treated with vehicle (5% N,N-dimethylacetamide [DMA]+30% polyethylene glycol [PEG] 400+65% of 30% 2-hydroxypropyl-beta-cyclodextrin [HP-β-CD] in water) or Compound I at 30, 100, and 300 mg/kg once daily (QD) for 2 days. Plasma samples were collected at 1, 2, 8 and 24 hours after last dose and analyzed for Compound I concentrations. Peripheral blood mononuclear cells (PBMC) and tumor samples were harvested at 2, 8, and 24 hours after last dose. The PBMC samples were processed for determination of mean florescent level of acetyl-histone H2B by flow cytometry. Tumor samples were processed for determination of protein levels of acetyl-histone H3 by Western blot.
For orientation: In western blotting, separated proteins are transferred to a membrane and probed.

Data set [5] in a line: Stability in human liver microsomes. It is filed as in vitro ADME. The following applies: 240 minutes; HLM protein concentration 0.6 mg/ml. As for the experimental part:
as §1
In general terms: Liver microsomes are vesicles of endoplasmic reticulum, rich in cytochrome P450 enzymes.

The target of data set [6] is CYP2C19 (Homo sapiens, UniProt P33261). In words: Metabolism by recombinant human CYP2C19. It counts as in vitro ADME. The following applies: read-out: terminal half life (T1/2), rh CYP2C19. As for the experimental part:
as §1

Data set [7] in a line: Pharmacokinetics in beagle dogs. It is filed as in vivo. As for the experimental part:
The PK of Compound I in beagle dogs was determined in plasma following single IV bolus and PO administration to non-naïve male and female beagle dogs. The vehicle used for IV was 20% wt/vol 2-hydroxypropyl β cyclodextrin (HPβCD), 1% vol/vol DMSO in saline, and PO was in 5% DMA, 30% PEG400 and 65% (30% HPβCD in water) (solution) or 0.5% MC (suspension). Plasma samples were collected from 3 animals/group at 0.083, 0.25, 0.5, 1, 3, 6, 9, 12, 24 and 48 hours after dosing.

A short description of data set [8]: Free fraction in mouse plasma. It counts as in vitro ADME. The following applies: C57BL/6 mouse plasma.
A short description of data set [9]: Predicted human PK. The note with it: calculated from rodent and dog data. As for the experimental part:
The human PK parameters for a dose of Compound I that is predicted to be efficacious were calculated based on the data from rodent and dog studies and are presented in Table 6.

Data set [10] has as its target CYP2C8 (Homo sapiens, UniProt P10632). In words: Metabolism by recombinant human CYP2C8. It counts as in vitro ADME. The following applies: read-out: terminal half life (T1/2), rh CYP2C8. As for the experimental part: as §1

Sequence of CYP2C8 (P10632 whole entry): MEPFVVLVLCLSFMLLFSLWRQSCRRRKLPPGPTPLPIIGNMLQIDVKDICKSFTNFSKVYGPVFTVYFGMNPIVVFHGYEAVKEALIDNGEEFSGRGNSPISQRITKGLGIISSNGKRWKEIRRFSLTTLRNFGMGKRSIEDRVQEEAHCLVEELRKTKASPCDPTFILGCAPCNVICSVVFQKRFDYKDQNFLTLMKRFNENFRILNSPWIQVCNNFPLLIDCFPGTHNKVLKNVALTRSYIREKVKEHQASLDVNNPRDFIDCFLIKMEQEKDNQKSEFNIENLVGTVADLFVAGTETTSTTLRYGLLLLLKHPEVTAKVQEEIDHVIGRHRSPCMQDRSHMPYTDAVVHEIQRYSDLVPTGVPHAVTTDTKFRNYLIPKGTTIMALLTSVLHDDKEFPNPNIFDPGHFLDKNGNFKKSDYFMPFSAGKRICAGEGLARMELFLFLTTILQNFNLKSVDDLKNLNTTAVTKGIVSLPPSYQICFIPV
Sequence of CYP2C19 (P33261 whole entry): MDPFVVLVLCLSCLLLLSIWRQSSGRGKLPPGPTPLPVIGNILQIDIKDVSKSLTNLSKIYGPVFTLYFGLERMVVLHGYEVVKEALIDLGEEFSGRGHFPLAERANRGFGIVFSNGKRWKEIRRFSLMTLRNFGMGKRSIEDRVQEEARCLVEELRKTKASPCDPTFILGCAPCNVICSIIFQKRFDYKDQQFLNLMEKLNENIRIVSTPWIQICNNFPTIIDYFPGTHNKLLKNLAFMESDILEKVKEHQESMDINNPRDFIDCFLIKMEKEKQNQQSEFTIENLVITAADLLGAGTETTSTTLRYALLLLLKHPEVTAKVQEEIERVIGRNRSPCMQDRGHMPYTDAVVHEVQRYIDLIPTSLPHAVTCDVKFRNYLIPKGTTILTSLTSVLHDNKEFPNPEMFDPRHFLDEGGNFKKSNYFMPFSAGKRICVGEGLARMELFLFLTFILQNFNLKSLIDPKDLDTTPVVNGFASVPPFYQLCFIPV
Sequence of CYP2D6 (P10635 whole entry): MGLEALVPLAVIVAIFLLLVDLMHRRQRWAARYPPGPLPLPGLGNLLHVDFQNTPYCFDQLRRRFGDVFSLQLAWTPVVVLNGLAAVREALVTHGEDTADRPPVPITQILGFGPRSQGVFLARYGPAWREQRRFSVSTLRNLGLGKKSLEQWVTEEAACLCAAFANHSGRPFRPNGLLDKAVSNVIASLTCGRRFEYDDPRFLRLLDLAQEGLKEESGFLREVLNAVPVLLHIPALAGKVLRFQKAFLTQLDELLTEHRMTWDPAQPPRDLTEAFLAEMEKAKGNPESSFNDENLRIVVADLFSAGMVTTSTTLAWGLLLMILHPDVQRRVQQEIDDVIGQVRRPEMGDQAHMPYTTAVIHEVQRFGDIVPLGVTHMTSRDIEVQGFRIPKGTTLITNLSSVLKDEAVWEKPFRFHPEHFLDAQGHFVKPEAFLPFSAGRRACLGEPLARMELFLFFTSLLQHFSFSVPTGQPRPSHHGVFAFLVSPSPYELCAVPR

On to `C[S@@](=N)(=O)c1ccc(C(=O)Nc2cc(-c3ccc(F)cc3)ccc2N)cc1` [Compound I, (R)—N-(4-amino-4′-fluoro-[1,1′-biphenyl]-3-yl)-4-(S-methylsulfonimidoyl)benzamide], for which the “immune evasion; expression of cytokines and antigen presentation genes” value in data set [1] is given as “reverses immune evasion on tumor cells”. In addition, the half-life in data set [2] is above 60 min; in [3] (male, Sprague Dawley), 288 min; in data set [6] it was above 60 min; in data set [7] (both sexes, beagle, dog, plasma), 504 min; in data set [10] it was above 60 min. Also, the clearance was found to be 7.7 mL/min/kg in [3] (male, Sprague Dawley, intravenous, 1 mg/kg, read-out: CL, p) and 9.6 mL/min/kg in data set [7] (both sexes, beagle, dog, plasma, intravenous, read-out: CL, p). Further, the bioavailability is 95.4% and 95% in data set [3] (male Sprague Dawley rats, PO 3 mg/kg in 0.5% MC, fasted, IV 1 mg/kg, read-out: PO bioavailability (% F)); 67.4% in data set [7] (both sexes, beagle, dog, plasma, po, 3 mg/kg, beagle dogs, solution at 3 mg/kg, fasted, read-out: PO bioavailability (% F)). Besides, the “maximal induction of histone acetylation in tumor” value in [4] (300 mg/kg QD, 2 days, 24 hours after last dose, vs vehicle control) came to 3.7 fold. Also, in [4] (30, 100, 300 mg/kg QD, starting 2 hours after last dose), the “tumor acetyl-histone protein levels” value is “dose-dependent increase”. In addition, in data set [5], the “remaining after incubation with HLM” value is listed as above 93%. Also, the “PO bioavailability (% F)” value in [7] (beagle dogs, solution at 3 mg/kg, fasted, 3 mg/kg) was determined as 67%. In data set [8], this compound registered a fraction unbound of 0.101. The “% F” value in [9] is 78%. Moreover, the MRT in data set [9] is 9.5 h. The T1/2 in [9] is 6.6 h. Moreover, the “Total AUC” value in data set [9] (dose predicted to be efficacious) is 6.3 µg·h/mL.
